Usually Ki stands for a dissociation constant, usually derived from enzyme kinetics or from competition with a known ligand. High values mean a looser hold on the target, low ones a stronger hold on the target. As a reminder, the IC50 is the concentration that inhibits the measured activity by half. A higher IC50 goes with weaker potency.

The record followed here is ChEMBL document CHEMBL1141239, “New series of potent delta-opioid antagonists containing the H-Dmt-Tic-NH-hexyl-NH-R motif” (Bioorg Med Chem Lett, 2005).

Assay [1] deals with Delta-type opioid receptor (Rattus norvegicus, UniProt P33533). The experiment in a line: Displacement of [3H]deltorphin II from delta opioid receptor in rat brain membrane. The class given is cell membranes. (Loss of bound radioactivity is the signal in a displacement assay; it reports binding, not function.)
Assay [2] concerns the target T1, Delta-type opioid receptor (Mus musculus, UniProt P32300). The experiment in a line: Displacement of deltorphin-II from delta opioid receptor in mouse vas deferens. The class given is functional. The conditions noted are these: read-out: pA2 (converted).
Assay [3] deals with T1, Delta-type opioid receptor. The experiment in a line: Agonistic activity at delta opioid receptor in mouse vas deferens. The class given is functional, tissue-based.
Assay [4] deals with Mu-type opioid receptor (Rattus norvegicus, UniProt P33535). The experiment in a line: Displacement of [3H]DAMGO from mu opioid receptor in rat brain membrane. The class given is cell membranes.
Assay [5] deals with Mu-type opioid receptor (Cavia porcellus, UniProt P97266). Put plainly: Agonistic activity against mu opioid receptor in guinea-pig ileum. Format: functional, tissue-based.
Assay [6] deals with Opioid receptors; mu & delta (Rattus norvegicus) (UniProt P33533+P33535). The experiment in a line: Selectivity ratio of rat delta opioid receptor over rat mu opioid receptor. The class given is protein assay.

Molecules are shown by their SMILES. Square brackets hold non-standard residues; d marks the D form. Peptide text beside a SMILES is read from it. Dmt = Cc1cc(O)cc(C)c1C[C@H](N)C(=O)O; Tic = O=C(O)[C@@H]1Cc2ccccc2CN1

Chain of Mu-type opioid receptor (Rattus norvegicus, UniProt P33535) (P33535 whole entry): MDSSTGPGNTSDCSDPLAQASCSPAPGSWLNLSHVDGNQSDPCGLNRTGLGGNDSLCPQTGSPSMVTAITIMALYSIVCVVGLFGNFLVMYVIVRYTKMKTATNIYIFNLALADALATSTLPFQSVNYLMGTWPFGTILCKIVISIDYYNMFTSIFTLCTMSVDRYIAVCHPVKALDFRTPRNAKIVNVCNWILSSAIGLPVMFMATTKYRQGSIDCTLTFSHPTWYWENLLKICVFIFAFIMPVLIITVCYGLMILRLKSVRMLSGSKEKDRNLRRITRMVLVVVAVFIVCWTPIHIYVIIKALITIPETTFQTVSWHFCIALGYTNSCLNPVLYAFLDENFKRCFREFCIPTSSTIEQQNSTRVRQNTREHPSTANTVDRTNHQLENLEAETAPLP
Chain of Mu-type opioid receptor (Cavia porcellus, UniProt P97266) (P97266 whole entry): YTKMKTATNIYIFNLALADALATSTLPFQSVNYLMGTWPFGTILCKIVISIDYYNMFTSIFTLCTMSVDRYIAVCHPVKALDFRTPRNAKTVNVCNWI
Chain of Delta-type opioid receptor (Rattus norvegicus, UniProt P33533) (P33533 whole entry): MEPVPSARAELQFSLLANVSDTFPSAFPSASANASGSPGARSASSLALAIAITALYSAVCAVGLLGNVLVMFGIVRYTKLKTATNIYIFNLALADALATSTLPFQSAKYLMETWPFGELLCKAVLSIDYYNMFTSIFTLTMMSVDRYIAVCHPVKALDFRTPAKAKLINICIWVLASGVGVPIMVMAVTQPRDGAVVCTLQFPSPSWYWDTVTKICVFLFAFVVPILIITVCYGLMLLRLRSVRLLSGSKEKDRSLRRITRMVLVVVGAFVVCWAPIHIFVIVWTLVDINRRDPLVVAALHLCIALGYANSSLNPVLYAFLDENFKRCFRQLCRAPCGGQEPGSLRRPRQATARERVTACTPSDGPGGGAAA
Chain of Opioid receptors; mu & delta (Rattus norvegicus) (P33533 whole entry, looked up): as the sequence (P33533 whole entry) above
Chain of Opioid receptors; mu & delta (Rattus norvegicus) (P33535 whole entry, looked up): as the sequence (P33535 whole entry) above
T1 sequence (P32300 whole entry): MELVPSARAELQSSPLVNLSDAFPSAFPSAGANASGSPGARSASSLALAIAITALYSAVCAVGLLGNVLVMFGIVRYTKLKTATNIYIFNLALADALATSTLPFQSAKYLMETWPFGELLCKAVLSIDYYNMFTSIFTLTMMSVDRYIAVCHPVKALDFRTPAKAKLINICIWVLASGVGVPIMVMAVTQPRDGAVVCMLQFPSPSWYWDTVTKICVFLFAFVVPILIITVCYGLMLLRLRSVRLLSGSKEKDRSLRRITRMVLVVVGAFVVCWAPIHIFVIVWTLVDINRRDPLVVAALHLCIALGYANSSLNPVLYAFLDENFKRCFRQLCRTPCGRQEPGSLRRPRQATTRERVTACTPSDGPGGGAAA

Turning to `Cc1cc(O)cc(C)c1C[C@H](N)C(=O)N1Cc2ccccc2CC1C(=O)NCCCCCCNC(=O)C1Cc2ccccc2CN1` (some centres undefined), the inhibition constant Ki in assay [1] turned out to be 0.13 nM; at Mu-type opioid receptor [4] it was 2.81 nM. Besides, in assay [2], the Kb was 0.0398 nM. The results for the IC50 (in assay [3]; at Mu-type opioid receptor [5]) were over 10000 nM and 1600 nM, respectively. Moreover, the Ratio Ki in assay [6] was 22.
As for `Cc1cc(O)cc(C)c1C[C@H](N)C(=O)N1Cc2ccccc2C[C@H]1C(=O)O` (H-[Dmt]-[Tic]-OH), the Kb in assay [2] is 3.16 nM.
Take `Cc1cc(O)cc(C)c1C[C@H](N)C(=O)N1Cc2ccccc2CC1C(=O)NCCCCCCNC(=O)[C@@H](N)Cc1ccccc1` (some centres undefined): the results for the Ki (in assay [1]; on Mu-type opioid receptor [4]) were 0.89 nM and 1.91 nM, respectively. Further, the Kb in assay [2] was 0.0501 nM. Besides, the 50% inhibitory concentration (IC50) in assay [3] is over 10000 nM; at Mu-type opioid receptor [5], 5550 nM. Also, the Ratio Ki in assay [6] was determined as 2.
For `Cc1cc(O)cc(C)c1C[C@H](N)C(=O)NCCCCCCNC(=O)C1Cc2ccccc2CN1C(=O)[C@@H](N)Cc1c(C)cc(O)cc1C` (some centres undefined), the Ki in assay [1] is 0.23 nM; on Mu-type opioid receptor [4] it was 0.38 nM. Further, the Kb in assay [2] was 0.0631 nM. The values for the IC50 (in assay [3]; on Mu-type opioid receptor [5]) were over 10000 nM and 5900 nM, respectively. Also, the Ratio Ki in assay [6] was determined as 2.
